The subject of assay [1] is leukotriene C4-induced contraction of guinea pig peripheral lung strips. The assay is described as follows: Protocol for SRS-A Antagonists: leukotriene C4-induced contraction of guinea pig peripheral lung strips. The settings on record: 0.2 nM leukotriene C4, read-out: concentration required for 50% inhibition of 0.2 nM leukotriene C4-induced contraction. Here is the method: Leukotrienes, the products of the 5-lipoxygenase pathway of arachidonic acid metabolism, are potent contractile agents with a variety of smooth muscle preparations. […] The following protocol describes an in vitro assay used to test compounds which specifically antagonize the actions of leukotrienes.
Protocol for SRS-A (slow reacting substance of anaphylaxis) Antagonists
Peripheral strips of guinea pig lungs are prepared and hung in tissue baths (Metro #ME-5505, 10 ml) according to the published procedure--(Proc. Nat'l Acad. Sci., U.S.A. Volume 77, pp. 4354-4358, 1980). The strips are thoroughly rinsed in Assay Buffer and then connected with surgical silk thread to support rods from the tissue baths. The rods are adjusted in the baths and the strips connected to the pressure transducers (Grass FT 103 or Gould UC-3). The tissue baths are aerated with 95% oxygen--5% carbon dioxide and maintained at 37° C. The assay buffer has been made as follows: for each liter of buffer the following are added to approximately 800 ml of water distilled in glass-6.87 g NaCl, 0.4 g KCl, 2.1 g NaHCO3, 0.14 g NaH2 PO4.H2 O, 0.21 g MgSO4.7H2 O, and 2.0 g D-glucose. […]
Responses of each tissue to a pre-determined concentration of leukotriene are then obtained. […] The intrinsic activity of the compounds, and their effect on leukotriene-induced contractions are then recorded.

Assay [2] has as its system lipoxygenase pathway (5-HETE production in rat neutrophils). The assay is described as follows: Protocol for Detecting Inhibitors of the Lipoxygenase Pathway (5-HETE production in rat neutrophils). The class given is cell-based. The following applies: Neutrophil, 0.05 h, [14C]-arachidonic acid and Calcium Ionophore A23187, 3 minutes at 30° C., 5-HETE produced, read-out: I50. Here is the method:
The following protocol describes an assay to detect inhibitors of the lipoxygenase pathway. Such inhibitors are believed to be capable of modulating the biosynthesis of the leukotrienes, a property believed to be useful in treating asthma and inflammatory disease states.
Protocol for Detecting Inhibitors of the Lipoxygenase Pathway
A suspension of rat neutrophils in buffer is incubated for 3 minutes at 30° C. with [^14 C]-arachidonic acid (AA) and Calcium Ionophore A23187. Citric acid (2M) is used to quench the reaction. Following the addition of a trace amount of (^3 H)-5-HETE together with an excess of unlabeled 5-HETE to each tube, the mixture is extracted with chloroform/methanol. The organic layer is washed with dilute acid and an aliquot is transferred to glass tubes and dried. […] After adjusting for the extraction efficiency, the amount (pmole) of [^14 C]-5-HETE in each of the tubes is quantitated by substracting the net pmoles of 5-HETE in the tubes containing buffer alone (blank) from the pmoles of 5-HETE in the tubes containing […]. The ability of the test compounds to modulate the activity of this enzyme is determined by a decrease or increase in the net amount of 5-HETE produced.

Assay [3] has as its system SRS-A component of anaphylactic bronchoconstriction. As to the kind of experiment: Bronchial Anaphylaxis in Guinea Pigs with Enhanced Leukotrienes (BAGEL). It counts as in vivo, guinea pig. The following applies: 100 mg/kg, i.d., guinea pigs immunized with ovalbumin. Here is the method: Protocol for in vivo Testing of Modulators of SRS-A (slow reacting substances of anaphylaxis)
This test, known as the Bronchial Anaphylaxis in Guinea Pigs with Enhanced Leukotrienes (BAGEL), is based on the procedure published in Agents and Actions, Vol. II, pp. 396-401, 1981, and is performed with guinea pigs actively immunized (14 days) with ovalbumin (2.7 mg/kg, i.p.) and B. pertussis (5×10^9 organisms) as an adjuvant. Prior to challenge with antigen (ovalbumin), the animals are anesthetized and prepared for monitoring pulmonary dynamics by whole body plethysmography. They are treated with an H1 antihistamine (methapyrilene, 2 mg/kg, i.v.) and cyclooxygenase inhibitor (indomethacin; 20 mg/kg, i.p.) in order to enhance the SRS-A component of anaphylactic bronchoconstriction. Bronchoconstriction is quantified as the maximum increase in airway resistance following antigen challenge. The drug is administered either i.p. 10 minutes before challenge, or i.d. 15 minutes before challenge.

Data on 2 compounds can be found in patent US4631287A, “Aryl and heteroaryl ethers as agents for the treatment of hypersensitive ailments” (USV Pharmaceutical Corp., priority 1985, dated 1986).

On to `COc1ccc(OCc2ccc3ccccc3n2)cc1` [2-(p-methoxyphenoxymethyl) quinoline, 2-(p-Methoxyphenoxymethyl) quinoline], for which the IC50 was found to be 300 nM in assay [1] and 700 nM in assay [2].

Turning to `c1ccc(OCc2ccc3ccccc3n2)cc1` [2-Phenoxymethyl quinoline], the IC50 was 900 nM in assay [1] and 500 nM in assay [2]. The “activity in BAGEL test (bronchoconstriction following antigen challenge)” value in assay [3] is reported as “highly active”.
